What was measured:
[1] = target: Proto-oncogene tyrosine-protein kinase receptor Ret (Homo sapiens) (UniProt P07949); assay: Inhibition of RET assessed as enzyme activity at 1 uM relative to untreated control; set-up: scale not given: the % may be the effect or the level left
[2] = target: Serine/threonine-protein kinase Chk1 (Homo sapiens) (UniProt O14757); assay: Inhibition of CHEK1 assessed as enzyme activity at 1 uM relative to untreated control; set-up: scale not given: the % may be the effect or the level left
[3] = target: Serine/threonine-protein kinase PLK4 (Homo sapiens) (UniProt O00444); assay: Inhibition of PLK4 assessed as enzyme activity at 1 uM relative to untreated control; set-up: scale not given: the % may be the effect or the level left
[4] = target: Tyrosine-protein kinase ABL1 (Homo sapiens) (UniProt P00519); assay: Inhibition of ABL1 assessed as enzyme activity at 1 uM relative to untreated control; set-up: scale not given: the % may be the effect or the level left
[5] = target: Fibroblast growth factor receptor 1 (Homo sapiens) (UniProt P11362); assay: Inhibition of FGFR1 assessed as enzyme activity at 1 uM relative to untreated control; set-up: scale not given: the % may be the effect or the level left
[6] = target: Serine/threonine-protein kinase Nek9 (Homo sapiens) (UniProt Q8TD19); assay: Inhibition of NEK9 assessed as enzyme activity at 1 uM relative to untreated control; set-up: scale not given: the % may be the effect or the level left
Sequence of Serine/threonine-protein kinase Nek9 (Homo sapiens) (Q8TD19 whole entry, canonical isoform): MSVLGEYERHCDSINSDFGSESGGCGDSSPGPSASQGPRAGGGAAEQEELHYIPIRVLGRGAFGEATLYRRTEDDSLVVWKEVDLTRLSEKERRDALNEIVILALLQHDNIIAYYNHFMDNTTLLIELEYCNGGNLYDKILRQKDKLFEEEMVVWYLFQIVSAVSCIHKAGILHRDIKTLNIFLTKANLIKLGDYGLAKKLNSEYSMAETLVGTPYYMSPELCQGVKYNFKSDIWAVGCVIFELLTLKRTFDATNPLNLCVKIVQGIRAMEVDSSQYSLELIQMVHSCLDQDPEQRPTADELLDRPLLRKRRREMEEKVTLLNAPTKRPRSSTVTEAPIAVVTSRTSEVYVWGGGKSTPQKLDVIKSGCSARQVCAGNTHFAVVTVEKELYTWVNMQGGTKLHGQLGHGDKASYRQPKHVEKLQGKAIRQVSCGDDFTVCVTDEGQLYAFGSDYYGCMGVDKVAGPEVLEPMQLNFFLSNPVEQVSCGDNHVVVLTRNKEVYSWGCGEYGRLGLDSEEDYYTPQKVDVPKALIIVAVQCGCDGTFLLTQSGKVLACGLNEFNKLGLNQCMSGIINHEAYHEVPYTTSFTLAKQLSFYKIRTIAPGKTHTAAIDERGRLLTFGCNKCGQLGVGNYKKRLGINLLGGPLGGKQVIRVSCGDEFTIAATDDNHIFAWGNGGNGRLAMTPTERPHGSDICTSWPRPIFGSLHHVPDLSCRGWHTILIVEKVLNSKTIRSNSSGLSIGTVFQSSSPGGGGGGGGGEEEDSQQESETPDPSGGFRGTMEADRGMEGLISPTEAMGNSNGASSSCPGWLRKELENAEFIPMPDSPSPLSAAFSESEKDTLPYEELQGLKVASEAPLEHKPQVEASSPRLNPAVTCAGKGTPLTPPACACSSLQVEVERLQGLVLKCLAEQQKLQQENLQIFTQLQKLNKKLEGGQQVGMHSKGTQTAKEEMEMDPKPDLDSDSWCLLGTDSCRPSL

[7] = target: Phosphatidylinositol 4,5-bisphosphate 3-kinase catalytic subunit alpha isoform (Homo sapiens) (UniProt P42336); assay: Inhibition of PIK3CA assessed as enzyme activity at 1 uM relative to untreated control; set-up: scale not given: the % may be the effect or the level left
Sequence of Phosphatidylinositol 4,5-bisphosphate 3-kinase catalytic subunit alpha isoform (Homo sapiens) (P42336 whole entry, canonical isoform): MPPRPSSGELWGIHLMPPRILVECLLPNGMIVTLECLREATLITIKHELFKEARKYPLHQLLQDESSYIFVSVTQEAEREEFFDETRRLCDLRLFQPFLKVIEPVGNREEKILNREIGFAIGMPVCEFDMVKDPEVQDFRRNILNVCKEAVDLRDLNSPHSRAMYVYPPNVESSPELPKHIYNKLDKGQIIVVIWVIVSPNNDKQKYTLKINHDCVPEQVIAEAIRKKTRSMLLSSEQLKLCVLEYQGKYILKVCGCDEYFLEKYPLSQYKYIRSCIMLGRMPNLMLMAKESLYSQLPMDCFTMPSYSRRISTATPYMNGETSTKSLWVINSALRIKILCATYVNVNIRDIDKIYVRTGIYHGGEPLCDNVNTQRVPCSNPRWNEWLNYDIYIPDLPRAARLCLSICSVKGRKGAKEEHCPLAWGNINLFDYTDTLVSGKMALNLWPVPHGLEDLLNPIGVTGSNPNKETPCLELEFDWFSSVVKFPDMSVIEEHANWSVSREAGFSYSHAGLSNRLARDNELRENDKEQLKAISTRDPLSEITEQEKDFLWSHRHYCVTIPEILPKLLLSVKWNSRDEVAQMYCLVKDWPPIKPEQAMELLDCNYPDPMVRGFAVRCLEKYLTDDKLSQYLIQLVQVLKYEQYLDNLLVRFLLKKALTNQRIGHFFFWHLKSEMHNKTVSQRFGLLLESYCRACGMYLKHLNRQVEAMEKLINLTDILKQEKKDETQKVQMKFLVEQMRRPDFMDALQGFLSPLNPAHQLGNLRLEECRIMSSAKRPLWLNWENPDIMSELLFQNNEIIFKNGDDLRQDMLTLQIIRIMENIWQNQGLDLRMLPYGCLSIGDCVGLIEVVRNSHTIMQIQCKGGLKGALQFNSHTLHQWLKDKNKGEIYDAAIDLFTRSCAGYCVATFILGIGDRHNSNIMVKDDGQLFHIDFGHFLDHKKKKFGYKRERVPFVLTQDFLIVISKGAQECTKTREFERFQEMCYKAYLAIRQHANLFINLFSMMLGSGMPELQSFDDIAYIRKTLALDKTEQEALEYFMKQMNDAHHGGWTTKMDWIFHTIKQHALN

[8] = target: MAP kinase-interacting serine/threonine-protein kinase 1 (Homo sapiens) (UniProt Q9BUB5); assay: Inhibition of MKNK1 assessed as enzyme activity at 1 uM relative to untreated control; set-up: scale not given: the % may be the effect or the level left
Sequence of MAP kinase-interacting serine/threonine-protein kinase 1 (Homo sapiens) (Q9BUB5 whole entry, looked up): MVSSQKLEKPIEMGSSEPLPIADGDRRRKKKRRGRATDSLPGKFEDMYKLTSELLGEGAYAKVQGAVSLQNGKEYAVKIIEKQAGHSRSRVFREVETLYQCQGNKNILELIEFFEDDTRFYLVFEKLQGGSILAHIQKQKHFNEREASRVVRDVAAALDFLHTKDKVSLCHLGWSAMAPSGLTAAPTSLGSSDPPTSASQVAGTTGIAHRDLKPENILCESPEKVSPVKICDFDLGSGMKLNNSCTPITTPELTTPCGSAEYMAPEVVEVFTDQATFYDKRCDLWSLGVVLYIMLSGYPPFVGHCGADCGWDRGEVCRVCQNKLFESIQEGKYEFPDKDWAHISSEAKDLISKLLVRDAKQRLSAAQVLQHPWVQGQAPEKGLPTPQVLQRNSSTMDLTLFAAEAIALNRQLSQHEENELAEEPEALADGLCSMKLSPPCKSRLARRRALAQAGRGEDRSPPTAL

[9] = target: Myosin light chain kinase, smooth muscle (Homo sapiens) (UniProt Q15746); assay: Inhibition of MLCK assessed as enzyme activity at 1 uM relative to untreated control; set-up: scale not given: the % may be the effect or the level left
[10] = target: Dual specificity protein kinase CLK4 (Homo sapiens) (UniProt Q9HAZ1); assay: Inhibition of CLK4 assessed as enzyme activity at 1 uM relative to untreated control; set-up: scale not given: the % may be the effect or the level left
Sequence of Dual specificity protein kinase CLK4 (Homo sapiens) (Q9HAZ1 whole entry, looked up): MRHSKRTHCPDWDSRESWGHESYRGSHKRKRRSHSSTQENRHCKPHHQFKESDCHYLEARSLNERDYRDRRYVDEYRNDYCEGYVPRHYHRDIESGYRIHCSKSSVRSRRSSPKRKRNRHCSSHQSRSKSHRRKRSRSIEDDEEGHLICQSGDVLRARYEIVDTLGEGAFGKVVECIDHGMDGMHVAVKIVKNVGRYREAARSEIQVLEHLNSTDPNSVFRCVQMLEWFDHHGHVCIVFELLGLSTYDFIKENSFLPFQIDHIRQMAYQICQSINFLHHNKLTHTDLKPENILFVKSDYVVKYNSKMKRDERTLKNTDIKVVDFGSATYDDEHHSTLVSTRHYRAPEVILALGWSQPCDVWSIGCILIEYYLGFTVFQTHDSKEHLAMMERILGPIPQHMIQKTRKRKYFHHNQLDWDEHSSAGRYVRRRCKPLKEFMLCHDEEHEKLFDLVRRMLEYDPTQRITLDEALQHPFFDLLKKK

[11] = test system: Epidermal growth factor receptor (Homo sapiens), P00533 [UNDEFINED MUTATION]; assay: Inhibition of EGFR L747-S752del, P753S mutant assessed as enzyme activity at 1 uM relative to untreated control; format: protein assay; set-up: scale not given: the % may be the effect or the level left
Sequence of Epidermal growth factor receptor (Homo sapiens), P00533 [UNDEFINED MUTATION] (P00533 whole entry, looked up, stated change not applied): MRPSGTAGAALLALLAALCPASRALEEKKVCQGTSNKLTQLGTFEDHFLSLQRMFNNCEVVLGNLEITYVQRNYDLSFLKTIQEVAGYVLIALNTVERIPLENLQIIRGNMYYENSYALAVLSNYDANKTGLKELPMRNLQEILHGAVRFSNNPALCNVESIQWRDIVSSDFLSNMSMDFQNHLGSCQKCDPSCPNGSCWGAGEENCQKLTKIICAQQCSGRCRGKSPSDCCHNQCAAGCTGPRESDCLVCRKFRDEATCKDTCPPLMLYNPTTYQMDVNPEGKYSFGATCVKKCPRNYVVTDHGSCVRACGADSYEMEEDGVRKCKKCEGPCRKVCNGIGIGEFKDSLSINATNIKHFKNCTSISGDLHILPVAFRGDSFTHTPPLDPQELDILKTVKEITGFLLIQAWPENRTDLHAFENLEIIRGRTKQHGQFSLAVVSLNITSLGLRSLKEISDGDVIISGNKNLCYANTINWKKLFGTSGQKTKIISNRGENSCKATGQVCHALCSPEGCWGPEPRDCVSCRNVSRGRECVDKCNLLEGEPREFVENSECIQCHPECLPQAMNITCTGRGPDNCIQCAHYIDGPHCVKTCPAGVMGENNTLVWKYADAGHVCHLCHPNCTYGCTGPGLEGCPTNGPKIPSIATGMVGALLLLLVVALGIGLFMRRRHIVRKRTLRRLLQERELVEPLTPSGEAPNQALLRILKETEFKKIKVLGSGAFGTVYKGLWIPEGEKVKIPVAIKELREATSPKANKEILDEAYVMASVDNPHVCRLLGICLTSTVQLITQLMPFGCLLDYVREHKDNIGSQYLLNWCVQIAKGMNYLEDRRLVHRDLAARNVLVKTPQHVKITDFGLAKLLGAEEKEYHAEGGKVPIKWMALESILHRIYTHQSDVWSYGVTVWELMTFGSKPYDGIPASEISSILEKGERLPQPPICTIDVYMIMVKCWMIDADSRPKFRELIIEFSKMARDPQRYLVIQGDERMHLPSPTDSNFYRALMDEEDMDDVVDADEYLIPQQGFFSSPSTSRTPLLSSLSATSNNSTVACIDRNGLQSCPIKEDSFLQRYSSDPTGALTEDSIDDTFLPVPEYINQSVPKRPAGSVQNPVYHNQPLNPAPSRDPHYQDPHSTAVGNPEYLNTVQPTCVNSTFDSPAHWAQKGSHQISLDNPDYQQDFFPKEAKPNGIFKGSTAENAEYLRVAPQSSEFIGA

[12] = target: Wee1-like protein kinase (Homo sapiens) (UniProt P30291); assay: Inhibition of WEE1 assessed as enzyme activity at 1 uM relative to untreated control; set-up: scale not given: the % may be the effect or the level left
[13] = target: Phosphatidylinositol 4,5-bisphosphate 3-kinase catalytic subunit gamma isoform (Homo sapiens) (UniProt P48736); assay: Inhibition of PIK3CG assessed as enzyme activity at 1 uM relative to untreated control; set-up: scale not given: the % may be the effect or the level left
[14] = target: Serine/threonine-protein kinase LATS2 (Homo sapiens) (UniProt Q9NRM7); assay: Inhibition of LATS2 assessed as enzyme activity at 1 uM relative to untreated control; set-up: scale not given: the % may be the effect or the level left
[15] = target: Myosin-IIIa (Homo sapiens) (UniProt Q8NEV4); assay: Inhibition of MYO3A assessed as enzyme activity at 1 uM relative to untreated control; set-up: scale not given: the % may be the effect or the level left
[16] = target: Tyrosine-protein kinase receptor UFO (Homo sapiens) (UniProt P30530); assay: Inhibition of AXL assessed as enzyme activity at 1 uM relative to untreated control; set-up: scale not given: the % may be the effect or the level left
[17] = target: Cyclin-dependent kinase 3 (Homo sapiens) (UniProt Q00526); assay: Inhibition of CDK3 assessed as enzyme activity at 1 uM relative to untreated control; set-up: scale not given: the % may be the effect or the level left
[18] = target: Serine/threonine-protein kinase 32B (Homo sapiens) (UniProt Q9NY57); assay: Inhibition of YANK2 assessed as enzyme activity at 1 uM relative to untreated control; set-up: scale not given: the % may be the effect or the level left
[19] = test system: Tyrosine-protein kinase ABL1 (Homo sapiens), P00519 [Y253F]; assay: Inhibition of ABL1 Y253F mutant assessed as enzyme activity at 1 uM relative to untreated control; set-up: scale not given: the % may be the effect or the level left
[20] = target: Phosphorylase b kinase gamma catalytic chain, skeletal muscle/heart isoform (Homo sapiens) (UniProt Q16816); assay: Inhibition of PHKG1 assessed as enzyme activity at 1 uM relative to untreated control; set-up: scale not given: the % may be the effect or the level left
[21] = Elimination half life in CD1 mouse; format: ADME, organism-based; conditions: in vivo, read-out: beta t1/2 (converted)
[22] = target: Serine/threonine-protein kinase Nek7 (Homo sapiens) (UniProt Q8TDX7); assay: Inhibition of NEK7 assessed as enzyme activity at 1 uM relative to untreated control; set-up: scale not given: the % may be the effect or the level left
[23] = target: Proto-oncogene tyrosine-protein kinase Src (Homo sapiens) (UniProt P12931); assay: Inhibition of SRC assessed as enzyme activity at 1 uM relative to untreated control; set-up: scale not given: the % may be the effect or the level left
[24] = target: Serine/threonine-protein kinase pim-3 (Homo sapiens) (UniProt Q86V86); assay: Inhibition of PIM3 assessed as enzyme activity at 1 uM relative to untreated control; set-up: scale not given: the % may be the effect or the level left
[25] = target: Maternal embryonic leucine zipper kinase (Homo sapiens) (UniProt Q14680); assay: Inhibition of MELK assessed as enzyme activity at 1 uM relative to untreated control; set-up: scale not given: the % may be the effect or the level left
Sequence of Maternal embryonic leucine zipper kinase (Homo sapiens) (Q14680 whole entry, looked up): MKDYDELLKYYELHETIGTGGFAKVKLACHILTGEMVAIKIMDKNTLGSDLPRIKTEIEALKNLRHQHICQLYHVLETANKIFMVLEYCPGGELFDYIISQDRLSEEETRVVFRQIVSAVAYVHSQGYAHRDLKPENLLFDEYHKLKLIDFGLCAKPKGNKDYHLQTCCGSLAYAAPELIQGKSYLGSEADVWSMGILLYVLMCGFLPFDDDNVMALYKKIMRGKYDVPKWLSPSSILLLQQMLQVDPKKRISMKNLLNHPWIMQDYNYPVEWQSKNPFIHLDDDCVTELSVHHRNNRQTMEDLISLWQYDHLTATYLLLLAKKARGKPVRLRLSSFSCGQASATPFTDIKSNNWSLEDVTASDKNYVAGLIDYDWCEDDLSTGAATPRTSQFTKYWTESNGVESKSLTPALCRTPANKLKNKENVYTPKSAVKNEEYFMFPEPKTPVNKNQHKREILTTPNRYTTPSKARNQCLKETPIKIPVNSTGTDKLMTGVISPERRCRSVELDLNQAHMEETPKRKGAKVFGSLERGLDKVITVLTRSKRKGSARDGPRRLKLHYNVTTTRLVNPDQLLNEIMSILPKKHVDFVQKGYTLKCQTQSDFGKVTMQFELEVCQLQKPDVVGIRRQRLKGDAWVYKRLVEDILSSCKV

[26] = target: Tyrosine-protein kinase Srms (Homo sapiens) (UniProt Q9H3Y6); assay: Inhibition of SRMS assessed as enzyme activity at 1 uM relative to untreated control; set-up: scale not given: the % may be the effect or the level left
[27] = target: SRSF protein kinase 1 (Homo sapiens) (UniProt Q96SB4); assay: Inhibition of SRPK1 assessed as enzyme activity at 1 uM relative to untreated control; set-up: scale not given: the % may be the effect or the level left
[28] = test system: Tyrosine-protein kinase ABL1 (Homo sapiens), P00519 [M351T]; assay: Inhibition of ABL1 M351T mutant assessed as enzyme activity at 1 uM relative to untreated control; set-up: scale not given: the % may be the effect or the level left
[29] = target: Casein kinase II subunit alpha' (Homo sapiens) (UniProt P19784); assay: Inhibition of CSNK2A2 assessed as enzyme activity at 1 uM relative to untreated control; set-up: scale not given: the % may be the effect or the level left
[30] = target: Calcium/calmodulin-dependent protein kinase kinase 2 (Homo sapiens) (UniProt Q96RR4); assay: Inhibition of CAMKK2 assessed as enzyme activity at 1 uM relative to untreated control; set-up: scale not given: the % may be the effect or the level left
[31] = target: Tyrosine-protein kinase Lck (Homo sapiens, UniProt P06239); assay: Inhibition of LCK
[32] = target: TGF-beta receptor type-2 (Homo sapiens) (UniProt P37173); assay: Inhibition of TGFBR2 assessed as enzyme activity at 1 uM relative to untreated control; set-up: scale not given: the % may be the effect or the level left
[33] = target: Mitogen-activated protein kinase kinase kinase 4 (Homo sapiens) (UniProt Q9Y6R4); assay: Inhibition of MAP3K4 assessed as enzyme activity at 1 uM relative to untreated control; set-up: scale not given: the % may be the effect or the level left
[34] = target: Atypical kinase COQ8B, mitochondrial (Homo sapiens) (UniProt Q96D53); assay: Inhibition of ADCK4 assessed as enzyme activity at 1 uM relative to untreated control; set-up: scale not given: the % may be the effect or the level left
[35] = target: Serine/threonine-protein kinase 4 (Homo sapiens) (UniProt Q13043); assay: Inhibition of MST1 assessed as enzyme activity at 1 uM relative to untreated control; set-up: scale not given: the % may be the effect or the level left
[36] = target: Tyrosine-protein kinase ABL2 (Homo sapiens) (UniProt P42684); assay: Inhibition of ABL2 assessed as enzyme activity at 1 uM relative to untreated control; set-up: scale not given: the % may be the effect or the level left
[37] = target: Tyrosine-protein kinase HCK (Homo sapiens) (UniProt P08631); assay: Inhibition of HCK assessed as enzyme activity at 1 uM relative to untreated control; set-up: scale not given: the % may be the effect or the level left
[38] = target: Tyrosine-protein kinase Tec (Homo sapiens) (UniProt P42680); assay: Inhibition of TEC assessed as enzyme activity at 1 uM relative to untreated control; set-up: scale not given: the % may be the effect or the level left

Cc1ccc2c(Nc3ccc(Cl)cc3)nccc2c1Nc1ncccc1-c1ncnc2[nH]cnc12.Cl.Cl.Cl
Activity [1]: 65%
Activity [2]: 100%
Activity [3]: 90%
Activity [4]: 51%
Activity [5]: 80%
Activity [6]: 89%
Activity [7]: 100%
Activity [8]: 100%
Activity [9]: 99%
Activity [10]: 100%
Activity [11]: 94%
Activity [12]: 92%
Activity [13]: 100%
Activity [14]: 85%
Activity [15]: 99%
Activity [16]: 95%
Activity [17]: 84%
Activity [18]: 95%
Activity [19]: 61%
Activity [20]: 99%
half-life [21]: 3.3 h
Activity [22]: 88%
Activity [23]: 73%
Activity [24]: 100%
Activity [25]: 100%
Activity [26]: 100%
Activity [27]: 100%
Activity [28]: 45%
Activity [29]: 100%
Activity [30]: 98%
IC50 [31]: 83 nM
Activity [32]: 100%
Activity [33]: 100%
Activity [34]: 77%
Activity [35]: 88%
Activity [36]: 42%
Activity [37]: 53%
Activity [38]: 100%

From ChEMBL document CHEMBL1155237, “Selective inhibitors of the mutant B-Raf pathway: discovery of a potent and orally bioavailable aminoisoquinoline” (J Med Chem, 2009)
